Results taken from patent US20040059104A1, “Nucleotide mimics and their prodrugs” (priority 2002, published 2004).

Key:
in vitro = settings: bovine, serum, Half-Life, Serum Half-Lives of NTPs and AZT Triphosphate Mimics
HIV-1RF = experiment: Anti-HIV-1 cytoprotection assay in CEM-SS cells; type: cell-based; settings: Human immunodeficiency virus 1, 144 h; CEM-SS cells infected with HIV-1RF, MOI approximately 0.01, 6 days, MTS; read-out: CEM-SS IC50 (Anti-HIV Screening)
Experimental: ollowing paper: Structure-Activity and Cross-Resistance unodeficiency Virus Type 1-Specific ckheit, Jr. et al., Antimicrobial Agents and s were evaluated in CEM-SS cell cultures V-1RF at an MOI of approximately 0.01. At he soluble tetrazolium-based dye MTS viability and quantify compound toxicity of metabolically active cells to yield a soluble analysis of cell viability and compound
Efficacy Evaluation in CEM-SS Cells Anti-HIV-1 Cytoprotection Assay
Cell Preparation—CEM-SS cells were passaged in T-75 flasks prior to use in the antiviral assay. On the day preceding the assay, the cells were split 1:2 to assure they were in an exponential growth phase at the time of infection. Total cell and viability quantification was performed using a hemacytometer and trypan blue exclusion. Cell viability was greater than 95% for the cells to be utilized in the assay. The cells were resuspended at 5×10^4 cells/ml in tissue culture medium and added to the drug-containing microtiter plates in a volume of 50 μl.
Virus Preparation—The virus used for these tests was the lymphocytropic virus strain HIV-1RF. This virus was obtained from the NIH AIDS Research and Reference Reagent Program and was grown in CEM-SS cells for the production of stock virus pools. For each assay, a pre-titered aliquot of virus was removed from the freezer (−80° C.) and allowed to thaw slowly to room temperature in a biological safety cabinet. The virus was resuspended and diluted into tissue culture medium such that the amount of virus added to each well in a volume of 50 μl was the amount determined to give between 85 to 95% cell killing at 6 days post-infection.
At assay termination, the assay plates were stained with the soluble tetrazolium-based dye MTS (CellTiter Reagent Promega) to determine cell viability and quantify compound toxicity. MTS is metabolized by the mitochondrial enzymes of metabolically active cells to yield a soluble formazan product, allowing the rapid quantitative analysis of cell viability and compound cytotoxicity. […] At termination of the assay, 20 μL of MTS reagent was added per well. The microtiter plates were then incubated 4-6 hrs at 37° C. for the HIV cytoprotection assay; the incubation intervals were chosen based on empirically determined times for optimal dye reduction. Adhesive plate sealers were used in place of the lids, the sealed plate was inverted several times to mix the soluble formazan product and the plate was read spectrophotometrically at 490 nm with a Molecular Devices Vmax plate reader.

SMILES: [BH3-][P+](O)(OCC1OC(n2cc(C)c(=O)[nH]c2=O)CC1N=[N+]=[N-])OP(=O)(O)C(F)(F)P(=O)(O)O (single isomer, unassigned) [Compound 27-isomer 1, 3′-Azido-3′-deoxythymidine 5′-α-P-borano-β,γ-(difluoromethylene)triphosphate]
- half-life at 500 μM (in vitro): > 48 h
- IC50 (HIV-1RF): 1640 nM
